Assay results from patent US10709709B2, “Substituted carbonucleoside derivatives useful as anticancer agents” (Pfizer Inc., priority 2016, dated 2020).
Structures can show the parent of a compound that is named as a salt.

What was measured:
[1] = tested on: A549 lung adenocarcinoma cells; experiment: A549 proliferation assay (Cell Titer Glo); type: cell-based; conditions: 7 days with compound, cell viability by Cell Titer Glo (ATP)
Summary of the method: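 A549 cells plated overnight, then treated with nine-point 3.3-fold dilutions (final top 10 μM, 0.2% DMSO) for 7 days at 37 °C, with media and compound refreshed on day 4. Viability measured as ATP by Cell Titer Glo luminescence; IC50 from 4-parameter fit normalized to DMSO control.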

[2] = molecular target: PRMT5/MEP50 protein complex (Homo sapiens (Human), UniProt O14744); experiment: PRMT5 biochemical assay (3H-SAM methylation of H4(1-21) peptide, filter plate scintillation); conditions: 10 nM PRMT5/MEP50 complex, 200 nM H4(1-21) peptide, 1 uM SAM, 25 minute incubation at room temperature
Chain of PRMT5/MEP50 protein complex (O14744 other isoform, or with tags, fused parts or gaps): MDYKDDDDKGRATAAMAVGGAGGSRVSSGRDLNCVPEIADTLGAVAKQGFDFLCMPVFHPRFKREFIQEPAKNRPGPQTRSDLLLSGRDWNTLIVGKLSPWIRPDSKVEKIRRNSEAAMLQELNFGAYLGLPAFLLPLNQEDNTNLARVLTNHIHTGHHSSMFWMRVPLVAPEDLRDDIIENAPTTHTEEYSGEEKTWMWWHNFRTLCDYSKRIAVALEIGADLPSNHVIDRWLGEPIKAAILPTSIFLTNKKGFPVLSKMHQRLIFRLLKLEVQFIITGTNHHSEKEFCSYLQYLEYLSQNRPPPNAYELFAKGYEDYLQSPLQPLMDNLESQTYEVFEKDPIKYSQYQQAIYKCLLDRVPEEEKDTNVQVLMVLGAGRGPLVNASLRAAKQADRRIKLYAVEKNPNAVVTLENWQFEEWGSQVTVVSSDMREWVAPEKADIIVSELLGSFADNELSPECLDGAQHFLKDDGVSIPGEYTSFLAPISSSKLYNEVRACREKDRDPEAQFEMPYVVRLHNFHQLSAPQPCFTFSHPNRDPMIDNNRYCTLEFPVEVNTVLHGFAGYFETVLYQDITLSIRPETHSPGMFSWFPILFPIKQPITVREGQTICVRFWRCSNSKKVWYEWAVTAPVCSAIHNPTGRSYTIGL
Chain of PRMT5/MEP50 protein complex (Q9BQA1 whole entry partner): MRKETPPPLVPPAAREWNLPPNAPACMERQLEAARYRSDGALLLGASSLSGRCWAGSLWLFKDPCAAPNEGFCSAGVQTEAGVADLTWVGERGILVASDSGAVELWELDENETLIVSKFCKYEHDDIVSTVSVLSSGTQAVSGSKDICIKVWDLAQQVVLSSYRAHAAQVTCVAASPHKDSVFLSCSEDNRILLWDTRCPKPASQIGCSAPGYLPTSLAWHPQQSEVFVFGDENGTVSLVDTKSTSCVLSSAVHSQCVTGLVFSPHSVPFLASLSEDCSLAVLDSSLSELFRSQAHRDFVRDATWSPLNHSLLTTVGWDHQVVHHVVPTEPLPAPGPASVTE
Summary of the method: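 Human PRMT5/MEP50 complex (10 nM) methylating H4(1-21) peptide (200 nM) with 3H/unlabelled SAM (1 uM final) in pH 8.5 Tris buffer, 25 min at room temperature. Stopped with TCA, 3H-peptide captured on filter plates and scintillation-counted. IC50 from 4-parameter fit.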

SMILES	IC50 ([1]; Homo sapiens, A549, 168 h) [nM]	IC50 [2] [nM]	IC50 ([1]; hydrochloride) [nM]	IC50 ([1]; Homo sapiens, 168 h) [nM]	IC50 [1] [nM]
Cc1ncnc2c1ccn2[C@@H]1C[C@H](Oc2cc(C#N)cc3c2CNCCO3)[C@@H](O)[C@H]1O [Example 202, 6-(((1S,2S,3S,4R)-2,3-dihydroxy-4-(4-methyl-7H-pyrrolo[2,3-d]pyrimidin-7-yl)cyclopentyl)oxy)-2,3,4,5-tetrahydrobenzo[f][1,4]oxazepine-8-carbonitrile]	1760	1			
Cc1ncnc2c1ccn2[C@@H]1C[C@H](Oc2ccc(Cl)cc2CN)[C@@H](O)[C@H]1O [Example 159, (1S,2S,3S,5R)-3-(2-(aminomethyl)-4-chlorophenoxy)-5-(4-methyl-7H-pyrrolo[2,3-d]pyrimidin-7-yl)cyclopentane-1,2-diol]	5200	5			
Cc1ncnc2c1ccn2[C@@H]1C[C@H](Oc2ccc(F)cc2[C@H](C)N)[C@@H](O)[C@H]1O [Example 138, (1S,2S,3S,5R)-3-(2-((S)-1-aminoethyl)-4-fluorophenoxy)-5-(4-methyl-7H-pyrrolo[2,3-d]pyrimidin-7-yl)cyclopentane-1,2-diol]	1480	2			
Cc1ncnc2c1ccn2[C@@H]1C[C@H](Oc2ccc(F)c3c2CNCC3C)[C@@H](O)[C@H]1O (single isomer, unassigned) [Example 183, hydrochloride]		1	136		
Nc1ncnc2c1c(Cl)cn2[C@@H]1C[C@H](Oc2cc(Cl)cc3c2CNCC3)[C@@H](O)[C@H]1O [Example 130, (1S,2S,3R,5S)-3-(4-amino-5-chloro-7H-pyrrolo[2,3-d]pyrimidin-7-yl)-5-((6-chloro-1,2,3,4-tetrahydroisoquinolin-8-yl)oxy)cyclopentane-1,2-diol]	983	1			
Cc1cn([C@@H]2C[C@H](Oc3ccc(F)c4c3CNCC4)[C@@H](O)[C@H]2O)c2ncnc(N)c12 [Example 121, (1S,2S,3R,5S)-3-(4-amino-5-methyl-7H-pyrrolo[2,3-d]pyrimidin-7-yl)-5-((5-fluoro-1,2,3,4-tetrahydroisoquinolin-8-yl)oxy)cyclopentane-1,2-diol]	938	1			
Cc1ncnc2c1ccn2[C@@H]1C[C@H](Oc2ccc(Cl)cc2CCN)[C@@H](O)[C@H]1O [Example 146, (1S,2S,3S,5R)-3-(2-(2-aminoethyl)-4-chlorophenoxy)-5-(4-methyl-7H-pyrrolo[2,3-d]pyrimidin-7-yl)cyclopentane-1,2-diol]		27		7070	
Cc1ncnc2c1ccn2[C@@H]1C[C@H]([C@H](O)c2ccc(F)c(Cl)c2)[C@@H](O)[C@H]1O [Example 5, (1S,2R,3R,5R)-3-[(S)-(3-chloro-4-fluorophenyl) (hydroxy)methyl]-5-(4-methyl-7H-pyrrolo[2,3-d]pyrimidin-7-yl)cyclopentane-1,2-diol]		25		932	
Cc1cc2c(c(O[C@H]3C[C@@H](n4cc(F)c5c(C)ncnc54)[C@H](O)[C@@H]3O)c1)CNCC2 [Example 124, (1S,2S,3R,5S)-3-(5-fluoro-4-methyl-7H-pyrrolo[2,3-d]pyrimidin-7-yl)-5-((6-methyl-1,2,3,4-tetrahydroisoquinolin-8-yl)oxy)cyclopentane-1,2-diol]	3830	2			
Cc1ncnc2c1ccn2[C@@H]1C[C@H](C(F)c2ccc(F)cc2)[C@@H](O)[C@H]1O (single isomer, unassigned) [Example 22]	135	3			
Nc1ncnc2c1c(F)cn2[C@@H]1C[C@H](Oc2cccc3c2CNCC3)[C@@H](O)[C@H]1O [Example 99, (1S,2S,3R,5S)-3-(4-amino-5-fluoro-7H-pyrrolo[2,3-d]pyrimidin-7-yl)-5-((1,2,3,4-tetrahydroisoquinolin-8-yl)oxy)cyclopentane-1,2-diol]	728	2			
CC1CNCc2c(O[C@H]3C[C@@H](n4cc(F)c5c(N)ncnc54)[C@H](O)[C@@H]3O)cc(C(F)F)c(F)c21 (stereo partly drawn) [Example 215, (1S,2S,3R,5S)-3-(4-amino-5-fluoro-7H-pyrrolo[2,3-d]pyrimidin-7-yl)-5-((6-(difluoromethyl)-5-fluoro-4-methyl-1,2,3,4-tetrahydroisoquinolin-8-yl)oxy)cyclopentane-1,2-diol]		1			1
Nc1ncnc2c1ccn2[C@@H]1C[C@H](Oc2ccc(F)c3c2CNCC3)[C@@H](O)[C@H]1O [Example 180, (1S,2S,3R,5S)-3-(4-amino-7H-pyrrolo[2,3-d]pyrimidin-7-yl)-5-((5-fluoro-1,2,3,4-tetrahydroisoquinolin-8-yl)oxy)cyclopentane-1,2-diol]	159	3			
Cc1cc2c(c(O[C@H]3C[C@@H](n4cc(Br)c5c(N)ncnc54)[C@H](O)[C@@H]3O)c1)CNCC2 [Example 123, (1S,2S,3R,5S)-3-(4-amino-5-bromo-7H-pyrrolo[2,3-d]pyrimidin-7-yl)-5-((6-methyl-1,2,3,4-tetrahydroisoquinolin-8-yl)oxy)cyclopentane-1,2-diol]	452	2			
Cc1ncnc2c1c(F)cn2[C@@H]1C[C@H](Oc2cc(C#N)cc3c2CNCC3)[C@@H](O)[C@H]1O [Example 119, 8-(((1S,2S,3S,4R)-4-(5-fluoro-4-methyl-7H-pyrrolo[2,3-d]pyrimidin-7-yl)-2,3-dihydroxycyclopentyl)oxy)-1,2,3,4-tetrahydroisoquinoline-6-carbonitrile]	556	1			
Nc1ncnc2c1c(F)cn2[C@@H]1C[C@H](Oc2cc(C(F)F)cc3c2CNCC3)[C@@H](O)[C@H]1O [Example 195, (1S,2S,3R,5S)-3-(4-amino-5-fluoro-7H-pyrrolo[2,3-d]pyrimidin-7-yl)-5-((6-(difluoromethyl)-1,2,3,4-tetrahydroisoquinolin-8-yl)oxy)cyclopentane-1,2-diol]	22	1			
Cc1ncc2c(F)cn([C@@H]3C[C@H](Oc4cc(Cl)cc5c4CNCC5)[C@@H](O)[C@H]3O)c2n1 [Example 175, (1S,2S,3S,5R)-3-((6-chloro-1,2,3,4-tetrahydroisoquinolin-8-yl)oxy)-5-(5-fluoro-2-methyl-7H-pyrrolo[2,3-d]pyrimidin-7-yl)cyclopentane-1,2-diol]	3230	5			
Cc1ncnc2c1c(F)cn2[C@@H]1C[C@H](Oc2cccc3c2CNCC3)[C@@H](O)[C@H]1O [Example 117, (1S,2S,3R,5S)-3-(5-fluoro-4-methyl-7H-pyrrolo[2,3-d]pyrimidin-7-yl)-5-((1,2,3,4-tetrahydroisoquinolin-8-yl)oxy)cyclopentane-1,2-diol]	7140	5			
Nc1ncnc2c1c(Cl)cn2[C@@H]1C[C@H](Oc2cc(F)c(F)c3c2CNCC3)[C@@H](O)[C@H]1O [Example 128, (1S,2S,3R,5S)-3-(4-amino-5-chloro-7H-pyrrolo[2,3-d]pyrimidin-7-yl)-5-((5,6-difluoro-1,2,3,4-tetrahydroisoquinolin-8-yl)oxy)cyclopentane-1,2-diol]	597	1			
Nc1ncnc2c1c(F)cn2[C@@H]1C[C@H](Oc2cc(Br)cc3c2CNCC3)[C@@H](O)[C@H]1O [Example 101, (1S,2S,3R,5S)-3-(4-amino-5-fluoro-7H-pyrrolo[2,3-d]pyrimidin-7-yl)-5-((6-bromo-1,2,3,4-tetrahydroisoquinolin-8-yl)oxy)cyclopentane-1,2-diol]	112	1			
Cc1nc(N)nc2c1ccn2[C@@H]1C[C@H]([C@H](O)c2ccc(F)c(F)c2)[C@@H](O)[C@H]1O [Example 48, (1R,2S,3R,5R)-3-(2-amino-4-methyl-7H-pyrrolo[2,3-d]pyrimidin-7-yl)-5-[(S)-(3,4-difluorophenyl)(hydroxy)methyl]cyclopentane-1,2-diol]	192	5			
Nc1ncnc2c1c(F)cn2[C@@H]1C[C@H](Oc2cc(Cl)c(F)c3c2CNCC3)[C@@H](O)[C@H]1O [Example 108, (1S,2S,3R,5S)-3-(4-amino-5-fluoro-7H-pyrrolo[2,3-d]pyrimidin-7-yl)-5-((6-chloro-5-fluoro-1,2,3,4-tetrahydroisoquinolin-8-yl)oxy)cyclopentane-1,2-diol]	163	1			
Cc1ncnc2c1ccn2[C@@H]1C[C@H](Oc2cc(F)c(F)cc2CN)[C@@H](O)[C@H]1O [Example 148, (1S,2S,3S,5R)-3-(2-(aminomethyl)-4,5-difluorophenoxy)-5-(4-methyl-7H-pyrrolo[2,3-d]pyrimidin-7-yl)cyclopentane-1,2-diol]	4880	2			
CC1CNCc2c(O[C@H]3C[C@@H](n4cc(F)c5c(N)ncnc54)[C@H](O)[C@@H]3O)cc(C(F)F)c(F)c21 (stereo partly drawn) [Example 216, (1S,2S,3R,5S)-3-(4-amino-5-fluoro-7H-pyrrolo[2,3-d]pyrimidin-7-yl)-5-((6-(difluoromethyl)-5-fluoro-4-methyl-1,2,3,4-tetrahydroisoquinolin-8-yl)oxy)cyclopentane-1,2-diol]		1			6
Cc1ncnc2c1ccn2[C@@H]1C[C@H]([C@H](O)c2ccc(Cl)cc2CN)[C@@H](O)[C@H]1O [Example 53, (1S,2R,3R,5R)-3-((S)-(2-(aminomethyl)-4-chlorophenyl)(hydroxy)methyl)-5-(4-methyl-7H-pyrrolo[2,3-d]pyrimidin-7-yl)cyclopentane-1,2-diol]	227	6			
